Data: patent US10544143B2, “4-azaindole compounds” (BRISTOL-MYERS SQUIBB COMPANY, priority 2017, dated 2020)
Read-outs that look alike come from different tables or passages of the source.

Columns and labels:
[1] = target: human TLR8 (Homo sapiens (Human), UniProt Q9NR97); test: TLR8 inhibition reporter assay (HEK-Blue SEAP);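 note: SEAP driven by IFN-β minimal promoter carrying NF-κB and AP-1 sites, compounds dosed 0.05 nM to 50 µM for 22 h, inhibition scaled between agonist-plus-DMSO and reference-inhibitor wells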
[2] = target: human TLR9 (Homo sapiens (Human), UniProt Q9NR96); test: TLR9 inhibition reporter assay (HEK-Blue SEAP);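 note: SEAP driven by an IFN-β minimal promoter with NF-κB and AP-1 sites, read after 22 h, compounds dosed 0.05 nM–50 µM, inhibition scaled between agonist plus DMSO and reference-inhibitor wells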
[3] = target: human TLR7 (Homo sapiens (Human), UniProt Q9NYK1); test: TLR7 inhibition reporter assay (HEK-Blue SEAP); format: cell-based
[4] = read-out: TLR8 IC50, HEK-Blue cells overexpressing human TLR8, R848 15.9 μM stimulation, SEAP reporter
[5] = read-out: TLR9 IC50, HEK-Blue cells overexpressing human TLR9, ODN2006 5 nM stimulation, SEAP reporter
[6] = HEK-Blue cells overexpressing human TLR7, gardiquimod 7.5 μM stimulation, SEAP reporter
[7] = read-out: TLR8 IC50, HEK-Blue cells overexpressing human TLR8, SEAP reporter, R848 15.9 μM
[8] = read-out: TLR9 IC50, HEK-Blue cells overexpressing human TLR9, SEAP reporter, ODN2006 5 nM
[9] = HEK-Blue cells overexpressing human TLR7, SEAP reporter, gardiquimod 7.5 μM
[10] = read-out: TLR8 IC50, HEK-Blue human TLR8 cells, R848 15.9 μM
[11] = read-out: TLR9 IC50, HEK-Blue human TLR9 cells, ODN2006 5 nM
[12] = HEK-Blue human TLR7 cells, gardiquimod 7.5 μM

human TLR7, sequence (Q9NYK1 27-1049): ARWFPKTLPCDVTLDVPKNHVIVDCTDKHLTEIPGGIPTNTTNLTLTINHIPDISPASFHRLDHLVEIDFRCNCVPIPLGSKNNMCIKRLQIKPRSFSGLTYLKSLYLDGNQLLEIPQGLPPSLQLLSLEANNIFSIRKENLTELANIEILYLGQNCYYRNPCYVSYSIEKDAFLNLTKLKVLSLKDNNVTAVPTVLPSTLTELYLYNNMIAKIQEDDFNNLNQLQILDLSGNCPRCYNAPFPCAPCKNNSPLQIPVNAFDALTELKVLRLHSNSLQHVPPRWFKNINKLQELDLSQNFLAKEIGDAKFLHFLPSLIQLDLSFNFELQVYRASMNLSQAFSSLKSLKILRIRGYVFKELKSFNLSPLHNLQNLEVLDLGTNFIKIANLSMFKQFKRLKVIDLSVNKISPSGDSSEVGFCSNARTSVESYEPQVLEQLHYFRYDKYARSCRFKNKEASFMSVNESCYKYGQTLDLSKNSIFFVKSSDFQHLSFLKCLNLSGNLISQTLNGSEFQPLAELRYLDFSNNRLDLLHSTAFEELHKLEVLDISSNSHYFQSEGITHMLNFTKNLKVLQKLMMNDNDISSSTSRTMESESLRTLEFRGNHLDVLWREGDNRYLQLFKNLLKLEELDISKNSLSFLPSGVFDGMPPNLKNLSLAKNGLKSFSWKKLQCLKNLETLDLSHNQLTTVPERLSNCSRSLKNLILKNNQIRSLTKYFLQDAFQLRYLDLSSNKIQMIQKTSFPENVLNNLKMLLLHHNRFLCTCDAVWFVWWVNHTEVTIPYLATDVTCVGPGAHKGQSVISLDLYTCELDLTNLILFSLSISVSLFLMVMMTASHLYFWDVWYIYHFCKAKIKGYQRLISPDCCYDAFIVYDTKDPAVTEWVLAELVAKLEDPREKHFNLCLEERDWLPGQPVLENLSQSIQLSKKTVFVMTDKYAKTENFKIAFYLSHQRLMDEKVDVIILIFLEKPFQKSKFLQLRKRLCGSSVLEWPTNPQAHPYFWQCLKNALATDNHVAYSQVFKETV
human TLR9, sequence (Q9NR96 26-1032): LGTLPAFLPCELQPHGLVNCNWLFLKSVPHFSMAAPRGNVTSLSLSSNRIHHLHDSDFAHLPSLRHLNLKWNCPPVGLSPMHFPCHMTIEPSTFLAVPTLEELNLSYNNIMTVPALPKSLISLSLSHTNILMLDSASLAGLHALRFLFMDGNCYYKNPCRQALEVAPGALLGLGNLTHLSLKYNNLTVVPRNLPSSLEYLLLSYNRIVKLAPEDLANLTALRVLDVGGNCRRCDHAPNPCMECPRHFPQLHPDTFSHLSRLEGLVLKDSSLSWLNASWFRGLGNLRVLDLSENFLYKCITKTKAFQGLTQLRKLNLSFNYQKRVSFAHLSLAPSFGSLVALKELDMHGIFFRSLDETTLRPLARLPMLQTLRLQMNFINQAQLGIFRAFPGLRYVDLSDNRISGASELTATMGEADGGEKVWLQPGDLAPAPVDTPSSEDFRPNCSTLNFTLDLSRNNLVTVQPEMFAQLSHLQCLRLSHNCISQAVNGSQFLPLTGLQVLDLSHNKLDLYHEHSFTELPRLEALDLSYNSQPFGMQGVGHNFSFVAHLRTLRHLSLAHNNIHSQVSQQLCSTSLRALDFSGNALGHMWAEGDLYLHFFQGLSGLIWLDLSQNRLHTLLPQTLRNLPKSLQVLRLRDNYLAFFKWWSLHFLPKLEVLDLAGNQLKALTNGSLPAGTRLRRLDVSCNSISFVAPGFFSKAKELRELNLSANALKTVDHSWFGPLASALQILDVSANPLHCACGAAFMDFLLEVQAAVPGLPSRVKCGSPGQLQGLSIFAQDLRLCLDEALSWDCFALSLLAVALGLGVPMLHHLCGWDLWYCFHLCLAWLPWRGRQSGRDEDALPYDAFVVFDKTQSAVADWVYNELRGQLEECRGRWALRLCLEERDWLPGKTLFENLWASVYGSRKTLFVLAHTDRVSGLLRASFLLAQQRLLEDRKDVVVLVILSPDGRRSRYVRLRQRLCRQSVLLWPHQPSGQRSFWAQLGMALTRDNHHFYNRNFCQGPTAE
human TLR8, sequence (Q9NR97 27-1041): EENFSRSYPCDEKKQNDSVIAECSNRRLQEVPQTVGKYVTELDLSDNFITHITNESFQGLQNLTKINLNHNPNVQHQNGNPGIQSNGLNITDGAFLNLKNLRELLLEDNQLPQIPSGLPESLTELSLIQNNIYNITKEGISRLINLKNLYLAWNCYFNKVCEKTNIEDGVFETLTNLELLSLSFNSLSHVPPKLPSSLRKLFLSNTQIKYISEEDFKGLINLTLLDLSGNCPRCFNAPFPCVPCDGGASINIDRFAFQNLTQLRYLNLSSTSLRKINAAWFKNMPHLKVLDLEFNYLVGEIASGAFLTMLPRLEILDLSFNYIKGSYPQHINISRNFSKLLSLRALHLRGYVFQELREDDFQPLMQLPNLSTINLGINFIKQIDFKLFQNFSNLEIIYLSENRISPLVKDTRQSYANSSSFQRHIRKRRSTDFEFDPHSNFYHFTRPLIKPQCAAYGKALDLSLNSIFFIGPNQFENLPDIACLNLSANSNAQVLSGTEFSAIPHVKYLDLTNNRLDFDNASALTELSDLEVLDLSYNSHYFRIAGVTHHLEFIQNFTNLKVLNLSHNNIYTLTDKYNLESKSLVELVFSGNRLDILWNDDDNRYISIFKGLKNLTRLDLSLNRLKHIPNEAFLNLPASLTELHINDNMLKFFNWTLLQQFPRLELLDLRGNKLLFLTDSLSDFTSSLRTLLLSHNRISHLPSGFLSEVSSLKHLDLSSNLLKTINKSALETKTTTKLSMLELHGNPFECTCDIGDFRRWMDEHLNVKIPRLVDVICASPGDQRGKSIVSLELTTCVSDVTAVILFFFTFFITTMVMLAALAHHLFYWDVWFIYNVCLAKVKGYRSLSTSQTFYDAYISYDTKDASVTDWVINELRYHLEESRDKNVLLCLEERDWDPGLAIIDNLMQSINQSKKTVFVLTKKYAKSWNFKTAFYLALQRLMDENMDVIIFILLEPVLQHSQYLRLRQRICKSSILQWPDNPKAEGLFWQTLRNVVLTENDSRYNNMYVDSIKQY

| SMILES | IC50 [1, 4] [nM] | IC50 [2, 5] [nM] | IC50 [3, 6] [nM] | IC50 [1, 7] [nM] | IC50 [2, 8] [nM] | IC50 [3, 9] [nM] | IC50 [1, 10] [nM] | IC50 [2, 11] [nM] | IC50 [3, 12] [nM] | other results |
| --- | --- | --- | --- | --- | --- | --- | --- | --- | --- | --- |
| Cc1ncc(CN(C)C2CCC(c3ccc4[nH]c(-c5cn6ncnc6c(C)c5C)c(C(C)C)c4n3)CC2)cn1 (stereo not drawn) [Example 394] | 1.5 | 1410 | 1.4 | – | – | – | – | – | – | – |
| Cc1c(-c2[nH]c3ccc(C4CCC(N(C)CC(N)=O)CC4)nc3c2C(C)C)cn2ncnc2c1C (stereo not drawn) [Example 398] | – | – | – | 17 | 4120 | 3.8 | – | – | – | – |
| COc1cc(-c2[nH]c3ccc(C4CCC(N(C)C(C)C)CC4)nc3c2C(C)C)cn2ncnc12 (stereo not drawn) [Example 168] | 3.4 | 658 | 0.89 | – | – | – | – | – | – | – |
| CC(C)c1c(-c2cn(C)c3ncccc23)[nH]c2ccc(C3CCC(NC4COC4)CC3)nc12 (stereo not drawn) [Example 184] | 18 | 2050 | 8.8 | – | – | – | – | – | – | – |
| Cc1cc(-c2[nH]c3ccc(C4CCNCC4)nc3c2C(C)C)nn(C)c1=O [Example 514] | – | – | – | 44 | 7110 | 38 | – | – | – | – |
| CNC(=O)CN(C)C1CCC(c2ccc3[nH]c(-c4cc(OC)c5ncnn5c4)c(C(C)C)c3n2)CC1 (stereo not drawn) [Example 227] | 7.7 | 926 | 2 | – | – | – | – | – | – | – |
| Cc1c(-c2[nH]c3ccc(N4CCN[C@H](C)C4)nc3c2C(C)C)cn2ncnc2c1C [Example 822] | – | – | – | – | – | – | 0.24 | 6910 | 1.1 | – |
| CCN(C)C1CCC(c2ccc3[nH]c(-c4cn5ncnc5c(C)c4C)c(C(C)C)c3n2)CC1 (stereo not drawn) [Example 390] | 7.6 | 3090 | 1.6 | – | – | – | – | – | – | – |
| Cc1c(-c2[nH]c3ccc(C4CCC(N5CC(F)(F)C5)CC4)nc3c2C(C)C)cn2ncnc2c1C (stereo not drawn) [Example 370] | 23 | > 50000 | 8.6 | – | – | – | – | – | – | – |
| Cc1c(-c2[nH]c3ccc(N4CCN(CC(=O)N(C)C)C[C@@H]4C)nc3c2C(C)C)cn2ncnc2c1C [Example 803] | – | – | – | – | – | – | 4 | 39700 | 4.3 | – |
| Cc1c(-c2[nH]c3ccc(N4C[C@@H](C)N(C(=O)CN(C)C)C[C@@H]4C)nc3c2C(C)C)cn2ncnc2c1C [Example 842] | – | – | – | – | – | – | 0.47 | 6920 | 0.38 | – |
| COc1cc(-c2[nH]c3ccc(C4CCC(N)C4)nc3c2C(C)C)cn2ncnc12 (racemic) [Example 7, 3-(3-isopropyl-2-(8-methoxy-[1,2,4]triazolo[1,5-a]pyridin-6-yl)-1H-pyrrolo[3,2-b]pyridin-5-yl)cyclopentan-1-amine] | – | – | 4.4 | – | – | – | – | – | – | IC50 ([1]; TLR8 IC50, HEK-Blue cells overexpressing human TLR8, R848 15.9 μM stimulation, SEAP reporter): 52 nM; IC50 ([2]; TLR9 IC50, HEK-Blue cells overexpressing human TLR9, ODN2006 5 nM stimulation, SEAP reporter): 8120 nM |
| Cc1c(-c2[nH]c3ccc(N4CCN(C(=O)C5CN(C)C5)C[C@@H]4C)nc3c2C(C)C)cn2ncnc2c1C [Example 829] | – | – | – | – | – | – | 12 | 17300 | 3.7 | – |
| COc1cc(-c2[nH]c3ccc(C4CC(NC5CCOCC5)C4)nc3c2C(C)C)cn2ncnc12 (stereo not drawn) [Example 632] | – | – | – | 2.2 | 439 | 3.1 | – | – | – | – |
| Cc1c(-c2[nH]c3ccc(C4CCN(C5COC5)CC4)nc3c2C(C)C)cn2ncnc2c1C [Example 538] | – | – | – | 3.3 | 8180 | 2 | – | – | – | – |
| Cc1cc(-c2[nH]c3ccc(C4CNCCO4)nc3c2C(C)C)cn(C)c1=O (stereo not drawn) [Example 669] | – | – | – | 5.6 | 31600 | 7.4 | – | – | – | – |
| COc1cc(-c2[nH]c3ccc(OC4CCN(C)CC4)nc3c2C(C)C)cn2ncnc12 [Example 600, 6-(3-isopropyl-5-((1-methylpiperidin-4-yl)oxy)-1H-pyrrolo[3,2-b]pyridin-2-yl)-8-methoxy-[1,2,4]triazolo[1,5-a]pyridine] | – | – | – | 6.2 | 2050 | 0.75 | – | – | – | – |
| Cc1c(-c2[nH]c3ccc(N4C[C@@H](C)N(C(=O)CCN5CCC6(COC6)C5)C[C@@H]4C)nc3c2C(C)C)cn2ncnc2c1C [Example 961] | – | – | – | – | – | – | 0.8 | 8340 | 0.35 | – |
| Cc1c(-c2[nH]c3ccc(N4C[C@@H](C)N(C(=O)CN(C)C)[C@@H](C)C4)nc3c2C(C)C)cn2ncnc2c1C [Example 862] | – | – | – | – | – | – | 2.2 | 7040 | 0.29 | – |
| Cc1c(-c2[nH]c3ccc(N4CCN(C5CCS(=O)(=O)CC5)C[C@@H]4C)nc3c2C(C)C)cn2ncnc2c1C [Example 815] | – | – | – | – | – | – | 1.4 | > 50000 | 1.8 | – |
| Cc1c(-c2[nH]c3ccc(C4CCN(CCS(C)(=O)=O)CC4)nc3c2C(C)C)cn2ncnc2c1C [Example 556] | – | – | – | 1.1 | 5080 | 1.7 | – | – | – | – |
| Cc1c(-c2[nH]c3ccc(C4CCC(NCC(=O)N(C)C)CC4)nc3c2C(C)C)cn2ncnc2c1C (stereo not drawn) [Example 354] | 2.3 | 790 | 1 | – | – | – | – | – | – | – |

| SMILES | IC50 [1, 4] [nM] | IC50 [2, 5] [nM] | IC50 [3, 6] [nM] | IC50 [1, 7] [nM] | IC50 [2, 8] [nM] | IC50 [3, 9] [nM] | IC50 [1, 10] [nM] | IC50 [2, 11] [nM] | IC50 [3, 12] [nM] | other results |
| --- | --- | --- | --- | --- | --- | --- | --- | --- | --- | --- |
| CC(C)c1c(-c2cn(C)c3ncccc23)[nH]c2ccc(C3CCC(N4CC5(C4)CS(=O)(=O)C5)CC3)nc12 (stereo not drawn) [Example 255] | 0.25 | 218 | 0.6 | – | – | – | – | – | – | – |
| COc1cc(-c2[nH]c3cc(C)c(C4CCC(N5CCC5)CC4)nc3c2C(C)C)cn2ncnc12 (stereo not drawn) [Example 325] | 38 | 3110 | 1.5 | – | – | – | – | – | – | – |
| Cc1c(-c2[nH]c3ccc(C4CCC(N5CCCC5)CC4)nc3c2C(C)C)cn2ncnc2c1C (stereo not drawn) [Example 407] | – | – | – | 8.5 | 2460 | 7.2 | – | – | – | – |
| Cc1c(-c2[nH]c3ccc(N4CCNC[C@@H]4C)nc3c2C(C)C)cn2ncnc2c1C [Example 152] | 1.6 | 5880 | 2.7 | – | – | – | – | – | – | – |
| Cc1cc(-c2[nH]c3ccc(C4CN(C5COC5)CCO4)nc3c2C(C)C)cn(C)c1=O (stereo not drawn) [Example 667] | – | – | – | 711 | > 50000 | 145 | – | – | – | – |
| COc1cc(-c2[nH]c3ccc(C4CC(N(C)CC(=O)N(C)C)C4)nc3c2C(C)C)cn2ncnc12 (stereo not drawn) [Example 627] | – | – | – | 18 | 4500 | 7.9 | – | – | – | – |
| Cc1c(-c2[nH]c3ccc(N4CCN(C(=O)CN5CC6(COC6)C5)CC4)nc3c2C(C)C)cn2ncnc2c1C [Example 1033] | – | – | – | – | – | – | 974 | 22400 | 1090 | – |
| Cc1c(-c2[nH]c3ccc(N4C[C@@H](C)N(C(=O)CN(C)C)[C@H](C)C4)nc3c2C(C)C)cn2ncnc2c1C [Example 885] | – | – | – | – | – | – | 3.8 | 7850 | 1.6 | – |
| COc1ncnc(OC)c1CNC1CCN(c2ccc3[nH]c(-c4cn5ncnc5c(C)c4C)c(C(C)C)c3n2)CC1 [Example 69] | 1310 | 25800 | 1310 | – | – | – | – | – | – | – |
| Cc1c(-c2[nH]c3ccc(N4CCN(C5COC5)CC4=O)nc3c2C(C)C)cn2ncnc2c1C [Example 140] | 186 | > 50000 | 127 | – | – | – | – | – | – | – |
| Cc1c(-c2[nH]c3ccc(N4C[C@@H](C)N(C(=O)CCN5CCOCC5)C[C@@H]4C)nc3c2C(C)C)cn2ncnc2c1C [Example 907] | – | – | – | – | – | – | 0.45 | > 50000 | 0.76 | – |
| Cc1c(-c2[nH]c3ccc(C4CCC(O)(CN)CC4)nc3c2C(C)C)cn2ncnc2c1C (stereo not drawn) [Example 1035, 1-(aminomethyl)-4-(2-(7,8-dimethyl-[1,2,4]triazolo[1,5-a]pyridin-6-yl)-3-isopropyl-1H-pyrrolo[3,2-b]pyridin-5-yl)cyclohexan-1-ol] | – | – | – | – | – | – | 21 | 3670 | 1.7 | – |
| Cc1c(-c2[nH]c3ccc(C4CCC(N5CC(C)(C)C5)CC4)nc3c2C(C)C)cn2ncnc2c1C (stereo not drawn) [Example 1040] | – | – | – | – | – | – | 0.66 | 1110 | 0.17 | – |
| Cc1c(-c2[nH]c3ccc(N4CCN(C(=O)CCN(C)C)[C@@H](C)C4)nc3c2C(C)C)cn2ncnc2c1C [Example 790] | – | – | – | 0.85 | 8810 | 0.42 | – | – | – | – |
| Cc1c(-c2[nH]c3ccc(C4CCC(N5CC(O)C5)CC4)nc3c2C(C)C)cn2ncnc2c1C (stereo not drawn) [Example 1049] | – | – | – | – | – | – | 5.4 | 2600 | 1.6 | – |
| Cc1c(-c2[nH]c3ccc(C4CCC(N(CCO)CCS(C)(=O)=O)CC4)nc3c2C(C)C)cn2ncnc2c1C (stereo not drawn) [Example 461] | – | – | – | 1.7 | 8470 | 2.6 | – | – | – | – |
| COc1cc(-c2[nH]c3ccc(C4CNCCO4)nc3c2C(C)C)cn2ncnc12 (stereo not drawn) [Example 671, 2-(3-isopropyl-2-(8-methoxy-[1,2,4]triazolo[1,5-a]pyridin-6-yl)-1H-pyrrolo[3,2-b]pyridin-5-yl)morpholine] | – | – | – | 2.1 | 4480 | 1.4 | – | – | – | – |
| CNC1CCC(c2ccc3[nH]c(-c4cn(CC#N)c5ncccc45)c(C(C)C)c3n2)CC1 (stereo not drawn) [Example 263] | 7.6 | 338 | 6.2 | – | – | – | – | – | – | – |
| Cc1cc2[nH]c(-c3cn4ncnc4c(C)c3C)c(C(C)C)c2nc1C1CCC(NC2COC2)CC1 (stereo not drawn) [Example 502] | – | – | – | 5.1 | 2900 | 0.79 | – | – | – | – |
| COc1cc(-c2[nH]c3ccc(C4CCC(NC5COC5)CC4)nc3c2C(C)C)cn2ncnc12 (stereo not drawn) [Example 186] | 9.3 | 1010 | 2.2 | – | – | – | – | – | – | – |
| [2H]C([2H])([2H])N(CC(=O)N1CCN(c2ccc3[nH]c(-c4cn5ncnc5c(C)c4C)c(C(C)C)c3n2)CC1)C([2H])([2H])[2H] (single isomer, unassigned) [Example 831] | – | – | – | – | – | – | – | – | 1.5 | IC50 ([1]; TLR8 IC50, HEK-Blue human TLR8 cells, R848 15.9 μM): 2.3 nM; IC50 ([2]; TLR9 IC50, HEK-Blue human TLR9 cells, ODN2006 5 nM): 8550 nM |
